Calls of active or inactive are those of the source.
Legend:
Albumin = Albumin (Bos taurus, UniProt P02769); assay: Counterscreen for inhibitors of T-cell receptor (TCR)-CD3 interaction: Fluorescence-based biochemical high throughput dose response assay to identify inhibitors of T-cell receptor (TCR)-CD3 interaction using a TAMRA-labeled BSA probe.; type: functional
[1] = biological target: T1, Zinc finger protein mex-5 (Caenorhabditis elegans, UniProt Q9XUB2); assay: MEX-5/TCR-2 RNA interaction inhibitors, dose response, biochemical, C. elegans, fluorescence polarization (AID 1960)
T1 sequence (Q9XUB2 whole entry): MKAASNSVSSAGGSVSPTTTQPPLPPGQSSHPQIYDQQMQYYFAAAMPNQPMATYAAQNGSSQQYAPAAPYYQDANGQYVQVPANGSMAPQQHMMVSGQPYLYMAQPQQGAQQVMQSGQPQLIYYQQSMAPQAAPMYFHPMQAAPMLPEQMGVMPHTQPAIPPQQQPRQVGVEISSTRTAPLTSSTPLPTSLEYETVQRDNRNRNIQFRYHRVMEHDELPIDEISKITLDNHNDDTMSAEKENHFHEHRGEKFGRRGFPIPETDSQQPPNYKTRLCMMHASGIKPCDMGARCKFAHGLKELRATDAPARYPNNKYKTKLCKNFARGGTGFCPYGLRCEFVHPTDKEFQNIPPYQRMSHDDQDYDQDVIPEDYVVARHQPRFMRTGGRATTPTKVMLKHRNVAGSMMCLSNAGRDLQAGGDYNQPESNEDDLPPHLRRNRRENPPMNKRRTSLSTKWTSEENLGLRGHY

[2] = HepG2 cell cytotoxicity, dose response, cytotoxicity control, ATP luminescence, cherry-pick, set 6 (AID 1053125); type: functional, cell-based
[3] = biological target: T2, RNA-binding protein pos-1 (Caenorhabditis elegans, UniProt G5EF15); assay: inhibitors of POS-1/mex-3 RNA binding, dose response, biochemical, fluorescence polarization (AID 1964);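 further: purified POS-1 fused to maltose binding protein made in E. coli; potency of compounds blocking POS-1 binding to fluorescent RNA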
T2 sequence (G5EF15 whole entry): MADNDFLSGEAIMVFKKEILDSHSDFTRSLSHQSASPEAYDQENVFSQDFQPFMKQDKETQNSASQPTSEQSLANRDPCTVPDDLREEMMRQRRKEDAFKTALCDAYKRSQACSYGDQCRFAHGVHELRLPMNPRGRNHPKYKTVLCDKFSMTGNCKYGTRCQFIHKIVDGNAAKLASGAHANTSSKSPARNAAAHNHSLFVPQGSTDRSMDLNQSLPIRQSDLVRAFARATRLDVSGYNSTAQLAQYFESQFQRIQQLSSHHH

Beta-galactosidase = Beta-galactosidase (Escherichia coli, UniProt Q8VNN2); assay: Dose response counterscreen for EBI2 assay utilizing the enzyme, b-galactosidase.; type: functional
Chain of Beta-galactosidase (Q8VNN2 whole entry): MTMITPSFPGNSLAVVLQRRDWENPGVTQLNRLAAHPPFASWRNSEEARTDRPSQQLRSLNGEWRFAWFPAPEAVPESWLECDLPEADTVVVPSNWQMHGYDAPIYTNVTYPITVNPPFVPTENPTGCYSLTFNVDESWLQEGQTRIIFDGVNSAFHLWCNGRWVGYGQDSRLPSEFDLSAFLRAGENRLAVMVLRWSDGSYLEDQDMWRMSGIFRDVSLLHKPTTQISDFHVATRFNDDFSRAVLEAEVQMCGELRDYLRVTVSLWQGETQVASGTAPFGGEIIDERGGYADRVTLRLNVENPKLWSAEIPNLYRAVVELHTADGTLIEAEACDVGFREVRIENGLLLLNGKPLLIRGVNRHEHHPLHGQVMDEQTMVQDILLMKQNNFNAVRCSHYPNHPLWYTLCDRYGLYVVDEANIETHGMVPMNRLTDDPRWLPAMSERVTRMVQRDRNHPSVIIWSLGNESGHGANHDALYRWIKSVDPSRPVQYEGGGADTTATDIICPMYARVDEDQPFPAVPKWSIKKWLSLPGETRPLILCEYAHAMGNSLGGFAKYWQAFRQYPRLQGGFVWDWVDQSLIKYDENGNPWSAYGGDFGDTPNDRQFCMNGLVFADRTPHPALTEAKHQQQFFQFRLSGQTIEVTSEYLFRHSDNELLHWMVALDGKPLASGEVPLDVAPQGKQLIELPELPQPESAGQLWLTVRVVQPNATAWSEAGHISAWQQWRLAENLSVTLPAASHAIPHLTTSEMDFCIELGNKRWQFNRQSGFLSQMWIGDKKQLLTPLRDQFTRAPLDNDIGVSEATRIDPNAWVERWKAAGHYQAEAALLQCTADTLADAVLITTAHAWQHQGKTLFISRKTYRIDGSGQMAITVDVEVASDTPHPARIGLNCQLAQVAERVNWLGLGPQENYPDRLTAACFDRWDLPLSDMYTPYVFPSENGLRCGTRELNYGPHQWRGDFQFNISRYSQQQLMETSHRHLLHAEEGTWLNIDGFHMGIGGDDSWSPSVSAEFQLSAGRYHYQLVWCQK

Cytochrome P450 1A2 = biological target: T3, Cytochrome P450 1A2 (Homo sapiens, UniProt P05177);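 further: PubChem cytochrome P450 panel assay, CYP1A2 panel member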
T3 sequence (P05177 whole entry): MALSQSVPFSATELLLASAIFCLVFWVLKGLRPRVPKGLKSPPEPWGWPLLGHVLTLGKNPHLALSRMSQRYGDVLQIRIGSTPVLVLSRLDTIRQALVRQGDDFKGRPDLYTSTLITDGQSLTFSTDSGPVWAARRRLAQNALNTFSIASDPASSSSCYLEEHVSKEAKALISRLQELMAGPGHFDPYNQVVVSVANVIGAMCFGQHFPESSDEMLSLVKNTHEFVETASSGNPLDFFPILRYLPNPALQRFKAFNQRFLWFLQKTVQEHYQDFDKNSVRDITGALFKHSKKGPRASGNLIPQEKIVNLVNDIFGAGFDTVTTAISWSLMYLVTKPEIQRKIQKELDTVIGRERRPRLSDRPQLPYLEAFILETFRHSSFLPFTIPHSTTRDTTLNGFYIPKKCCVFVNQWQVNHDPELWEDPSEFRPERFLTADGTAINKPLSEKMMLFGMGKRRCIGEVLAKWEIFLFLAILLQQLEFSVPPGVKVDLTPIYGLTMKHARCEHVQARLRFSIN

Cytochrome P450 2C19 = Cytochrome P450 2C19 (Homo sapiens, UniProt P33261); assay: Cytochrome panel assay with activity outcomes. Panel member name: p450-cyp2c19 Compounds with AC50 equal or less than 10 uM are considered active; type: functional; conditions: read-out: AC50
Chain of Cytochrome P450 2C19 (P33261 whole entry, the tested form may be a part): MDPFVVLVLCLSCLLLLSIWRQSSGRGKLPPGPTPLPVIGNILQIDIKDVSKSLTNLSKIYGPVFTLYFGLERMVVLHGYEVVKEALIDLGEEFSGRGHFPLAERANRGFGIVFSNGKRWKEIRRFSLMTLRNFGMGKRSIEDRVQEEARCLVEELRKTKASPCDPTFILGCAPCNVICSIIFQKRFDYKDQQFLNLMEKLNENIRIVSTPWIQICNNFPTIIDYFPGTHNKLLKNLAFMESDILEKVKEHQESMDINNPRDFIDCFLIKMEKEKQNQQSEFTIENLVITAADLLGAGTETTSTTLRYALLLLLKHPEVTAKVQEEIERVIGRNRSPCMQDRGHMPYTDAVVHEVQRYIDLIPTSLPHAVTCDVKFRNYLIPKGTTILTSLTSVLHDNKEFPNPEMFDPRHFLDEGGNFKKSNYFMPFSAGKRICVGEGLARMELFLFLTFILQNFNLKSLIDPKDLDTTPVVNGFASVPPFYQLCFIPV

[4] = biological target: Photoreceptor-specific nuclear receptor (Homo sapiens, UniProt Q9Y5X4); type: functional, cell-based;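 further: CHO-S cells with Gal4-NCOR and VP16-NR2E3 two-hybrid luciferase reporter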
Chain of Photoreceptor-specific nuclear receptor (Q9Y5X4 whole entry, the tested form may be a part): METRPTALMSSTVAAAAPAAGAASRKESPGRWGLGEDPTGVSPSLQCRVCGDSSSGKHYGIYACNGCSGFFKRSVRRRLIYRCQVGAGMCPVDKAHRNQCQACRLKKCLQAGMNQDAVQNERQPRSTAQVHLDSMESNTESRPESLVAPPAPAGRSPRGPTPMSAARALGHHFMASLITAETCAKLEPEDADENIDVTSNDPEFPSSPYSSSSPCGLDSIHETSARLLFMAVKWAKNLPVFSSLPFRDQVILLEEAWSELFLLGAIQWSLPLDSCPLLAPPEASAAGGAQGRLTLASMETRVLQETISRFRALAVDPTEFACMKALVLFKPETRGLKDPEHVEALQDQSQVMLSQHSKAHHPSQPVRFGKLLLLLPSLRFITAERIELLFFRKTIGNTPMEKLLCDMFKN

[5] = biological target: Peroxisome proliferator-activated receptor gamma/Nuclear receptor coactivator 1 (Homo sapiens, UniProt P37231); assay: (§1) TR-FRET dose response biochemical High Throughput Screening assay for agonists of the steroid receptor coactivator 1 (SRC-1) recruitment by the peroxisome proliferator-activated receptor gamma (PPAR gamma): non-selective agonists. [Related pubchem assays (depositor defined):AID1300, AID1808, AID504735, AID631]; type: protein assay
[6] = biological target: Peroxisome proliferator-activated receptor gamma/Nuclear receptor coactivator 3 (Homo sapiens, UniProt P37231); assay: as §1, with “3 (SRC-3)” for “1 (SRC-1)”, “assays: 1301 (Confirmation screen.), 1048 (Primary screen.)]” for “assays (depositor defined):AID1300, AID1808, AID504735, AID631]”; type: functional
Chain of Peroxisome proliferator-activated receptor gamma/Nuclear receptor coactivator 3 (P37231 whole entry): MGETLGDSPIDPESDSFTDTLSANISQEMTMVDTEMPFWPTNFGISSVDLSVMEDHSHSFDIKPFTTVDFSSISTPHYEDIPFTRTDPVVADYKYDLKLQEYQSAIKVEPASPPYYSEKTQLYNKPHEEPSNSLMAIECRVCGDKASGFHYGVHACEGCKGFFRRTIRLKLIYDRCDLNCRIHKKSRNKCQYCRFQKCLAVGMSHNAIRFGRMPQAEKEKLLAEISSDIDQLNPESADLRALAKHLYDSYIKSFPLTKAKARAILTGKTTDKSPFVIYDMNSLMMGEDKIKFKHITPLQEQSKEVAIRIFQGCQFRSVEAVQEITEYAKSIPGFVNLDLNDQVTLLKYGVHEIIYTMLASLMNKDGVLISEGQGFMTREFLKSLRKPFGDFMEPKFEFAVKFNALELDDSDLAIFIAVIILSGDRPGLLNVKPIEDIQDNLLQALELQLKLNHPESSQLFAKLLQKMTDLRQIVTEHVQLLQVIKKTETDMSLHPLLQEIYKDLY
Chain of Peroxisome proliferator-activated receptor gamma/Nuclear receptor coactivator 3 (Q9Y6Q9 whole entry, further chain): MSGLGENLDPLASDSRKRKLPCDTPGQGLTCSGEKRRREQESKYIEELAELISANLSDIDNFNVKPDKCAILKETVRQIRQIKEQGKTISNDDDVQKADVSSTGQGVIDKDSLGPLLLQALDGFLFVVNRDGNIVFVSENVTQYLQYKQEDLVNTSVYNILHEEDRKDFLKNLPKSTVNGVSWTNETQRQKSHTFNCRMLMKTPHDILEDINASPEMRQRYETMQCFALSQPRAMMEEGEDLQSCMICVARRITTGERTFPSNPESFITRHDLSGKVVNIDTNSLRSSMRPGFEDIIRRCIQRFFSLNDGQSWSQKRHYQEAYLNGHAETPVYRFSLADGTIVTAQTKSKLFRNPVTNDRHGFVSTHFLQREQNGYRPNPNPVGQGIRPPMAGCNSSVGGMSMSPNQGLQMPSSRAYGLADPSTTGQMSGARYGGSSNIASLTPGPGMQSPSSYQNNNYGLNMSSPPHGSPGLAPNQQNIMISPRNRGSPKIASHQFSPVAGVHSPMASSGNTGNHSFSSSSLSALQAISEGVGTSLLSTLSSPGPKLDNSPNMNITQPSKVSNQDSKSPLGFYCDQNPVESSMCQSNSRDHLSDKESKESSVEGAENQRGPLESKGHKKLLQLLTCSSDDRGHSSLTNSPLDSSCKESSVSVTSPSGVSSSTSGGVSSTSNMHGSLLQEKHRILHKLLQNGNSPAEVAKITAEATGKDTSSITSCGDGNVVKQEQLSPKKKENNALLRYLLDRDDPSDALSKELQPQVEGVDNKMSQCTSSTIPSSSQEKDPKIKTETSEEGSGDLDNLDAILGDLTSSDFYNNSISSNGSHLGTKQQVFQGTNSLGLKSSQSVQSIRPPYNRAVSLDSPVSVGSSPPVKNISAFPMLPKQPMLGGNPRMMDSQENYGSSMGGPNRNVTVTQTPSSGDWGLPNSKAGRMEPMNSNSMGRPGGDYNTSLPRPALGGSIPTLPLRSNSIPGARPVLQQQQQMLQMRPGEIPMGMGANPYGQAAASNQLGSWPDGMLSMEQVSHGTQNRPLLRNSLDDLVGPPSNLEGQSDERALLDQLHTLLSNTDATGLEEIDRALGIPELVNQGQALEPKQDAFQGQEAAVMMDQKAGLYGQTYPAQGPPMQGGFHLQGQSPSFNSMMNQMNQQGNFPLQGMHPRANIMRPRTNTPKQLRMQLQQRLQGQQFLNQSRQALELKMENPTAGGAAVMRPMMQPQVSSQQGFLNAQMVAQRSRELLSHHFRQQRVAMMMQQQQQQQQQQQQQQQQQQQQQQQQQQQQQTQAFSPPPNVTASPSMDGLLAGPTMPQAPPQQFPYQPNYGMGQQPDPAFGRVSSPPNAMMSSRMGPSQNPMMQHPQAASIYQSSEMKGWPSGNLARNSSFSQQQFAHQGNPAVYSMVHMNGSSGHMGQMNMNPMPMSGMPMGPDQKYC

[7] = Counterscreen for activators of the function of SWI/SNF related, matrix associated, actin dependent regulator of chromatin, subfamily a, member 2 (SMARCA2, BRM): Luminescence-based cell-based high throughput dose response assay to identify non-selective compounds using the VP16 reporter assay.; type: functional
[8] = biological target: SWI/SNF-related matrix-associated actin-dependent regulator of chromatin subfamily A member 2 (Homo sapiens, UniProt P51531); assay: Luminescence-based cell-based high throughput dose response assay to identify activators of the function of SWI/SNF related, matrix associated, actin dependent regulator of chromatin, subfamily a, member 2 (SMARCA2, BRM).; type: functional
[9] = biological target: Peroxisome proliferator-activated receptor gamma/Nuclear receptor coactivator 2 (Homo sapiens, UniProt P37231); assay: TR-FRET dose response biochemical High Throughput Screening assay for agonists of the steroid receptor coactivator 2 (SRC-2) recruitment by the peroxisome proliferator-activated receptor gamma (PPAR gamma): non-selective agonists. [Related pubchem assays: 1297, 1032 ]; type: functional
[10] = biological target: Oxysterols receptor LXR-beta (Homo sapiens, UniProt P55055); type: functional, cell-based;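 further: agonist activity at LXR measured by a cell-based luminescence readout across a dose range, run as a counterscreen for daf-12 agonists; HEK293 cells with Gal4-LXR fusion and GAL4-driven luciferase reporter; potency for activation of Gal4-LXR reporter so compounds are agonists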
[11] = ADAM10 inhibitors, peptide cleavage, dose response, biochemical, QFRET (AID 743254);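 further: ADAM10 enzyme with the DM2 quenched FRET peptide as substrate; EDANS fluorescence gain as the protease cuts the substrate; inhibitor potency against ADAM10 proteolytic activity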
[12] = inhibitors of intracellular T. cruzi replication, confirmation, NIH3T3 host cells, beta-gal luminescence (AID 2044); type: functional, cell-based;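 further: intracellular parasites grown in NIH/3T3 mouse fibroblasts as host cells; luminescent beta-galactosidase reporter signal from transgenic T. cruzi replicating inside host cells; inhibitors lower the luminescence signal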
[13] = biological target: T4, Disintegrin and metalloproteinase domain-containing protein 17 (Homo sapiens, UniProt P78536); assay: ADAM17 protease inhibitors, dose response, counter-screen for ADAM10 exosite inhibitor project, biochemical, quenched FRET substrate (AID 743253)
T4 sequence (P78536 whole entry, the tested form may be a part): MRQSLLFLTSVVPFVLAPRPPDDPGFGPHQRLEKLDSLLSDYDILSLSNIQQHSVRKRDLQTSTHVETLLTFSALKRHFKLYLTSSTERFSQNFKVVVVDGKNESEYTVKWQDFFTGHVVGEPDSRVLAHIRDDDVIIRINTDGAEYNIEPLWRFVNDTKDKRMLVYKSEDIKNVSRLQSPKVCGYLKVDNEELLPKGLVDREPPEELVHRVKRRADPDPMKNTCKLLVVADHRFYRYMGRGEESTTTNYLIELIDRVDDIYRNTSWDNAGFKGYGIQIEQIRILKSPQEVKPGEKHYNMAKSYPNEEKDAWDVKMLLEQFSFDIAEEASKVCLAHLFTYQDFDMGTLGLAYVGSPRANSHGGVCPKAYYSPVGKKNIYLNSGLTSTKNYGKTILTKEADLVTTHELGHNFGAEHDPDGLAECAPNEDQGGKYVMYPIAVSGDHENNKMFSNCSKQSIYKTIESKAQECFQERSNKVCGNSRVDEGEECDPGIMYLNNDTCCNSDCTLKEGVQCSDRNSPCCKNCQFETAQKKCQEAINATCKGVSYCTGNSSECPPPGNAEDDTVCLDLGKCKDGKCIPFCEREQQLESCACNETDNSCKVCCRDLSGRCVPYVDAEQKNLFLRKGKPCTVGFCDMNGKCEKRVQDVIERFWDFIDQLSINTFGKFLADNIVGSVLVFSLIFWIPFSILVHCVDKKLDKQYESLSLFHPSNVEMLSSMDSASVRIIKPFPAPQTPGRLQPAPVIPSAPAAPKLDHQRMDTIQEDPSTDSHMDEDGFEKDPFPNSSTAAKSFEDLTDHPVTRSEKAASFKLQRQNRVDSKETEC

[14] = cytotoxicity toward NIH3T3 fibroblasts, dose response, counter-screen, cell-based, ATP luminescence, mouse fibroblasts (AID 2010); type: functional;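 further: cells exposed to compound for about 90 hours before reading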
[15] = ADAM10 protease inhibitors, dose response, selectivity assay for ADAM17 exosite inhibitor project, biochemical, FRET peptide substrate, recombinant human ADAM10 (AID 743259);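 further: ADAM10 enzyme cleaving a FRET peptide substrate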
INS1 = assay: beta cell apoptosis inhibitors, cytokine rescue, dose response, luminescence, retest (AID 449756); type: functional, cell-based; conditions: Rattus norvegicus;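 further: cell death triggered by IL-1 beta plus TNF-alpha plus IFN-gamma mixture; protective hits raise ATP signal compared with cytokine alone wells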
[16] = Shn3 3'UTR reporter inhibitors, dose response, cell-based, Clone20 osteoblasts, firefly luciferase, cherry-picked (AID 624132); type: functional;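 further: firefly luciferase luminescence from reporter carrying the Shn3 3'UTR in osteoblasts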
[17] = biological target: T4, Disintegrin and metalloproteinase domain-containing protein 17; assay: exosite inhibitors of ADAM17, dose response, biochemical (AID 743260)
[18] = control 3'UTR Renilla luciferase suppression, dose response, counter-screen for Shn3 inhibitor project, cell-based, Clone20-Shn3RL, cherry-picked (AID 624133); type: functional
[19] = HepG2 cell cytotoxicity, dose response, cytotoxicity control for Shn3 inhibitor project, CellTiter-Glo, cherry-picked (AID 624134); type: functional, cell-based
Major prion protein = Major prion protein (Homo sapiens, UniProt P04156); type: functional, cell-based
fMet-Leu-Phe receptor = fMet-Leu-Phe receptor (Homo sapiens, UniProt P21462); assay: FPR ligands, dose response (AID 519); type: functional
Chain of fMet-Leu-Phe receptor (P21462 whole entry): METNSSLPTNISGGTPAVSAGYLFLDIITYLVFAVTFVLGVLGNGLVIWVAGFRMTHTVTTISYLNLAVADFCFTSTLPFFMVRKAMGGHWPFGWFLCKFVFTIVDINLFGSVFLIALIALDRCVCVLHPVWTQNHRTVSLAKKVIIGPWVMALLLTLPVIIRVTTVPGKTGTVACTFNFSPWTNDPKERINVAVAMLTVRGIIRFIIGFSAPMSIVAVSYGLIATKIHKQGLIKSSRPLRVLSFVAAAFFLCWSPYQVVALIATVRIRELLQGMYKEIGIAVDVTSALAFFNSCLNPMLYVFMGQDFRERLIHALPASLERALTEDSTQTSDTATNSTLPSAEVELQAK

For `CC(C)(C)c1ccc(C(=O)NCC(=O)NNC(=O)c2ccccc2O)cc1`, the IC50 (Albumin) was > 94.1 µM (inactive).
In the case of `N#CC1=C(N)OC2=C(C(=O)CCC2)C1c1cc2c(cc1Br)OCO2` (configuration not stated), the EC50 [1] was > 300 µM (not active), the AC50 [2] was > 52 µM (inactive) and the EC50 [3] was > 300 µM (not active).
In the case of `CCOC(=O)N1CCN(C(=O)c2cc(-c3ccc(F)cc3)[nH]c2C)CC1`, the IC50 (Beta-galactosidase) was > 80 µM (inactive), the AC50 (Cytochrome P450 1A2) was 20 µM (inconclusive) and the AC50 (Cytochrome P450 2C19) was 10 µM (inconclusive).
In the case of `CCn1c(=O)cc(SCC(=O)Nc2ccc(C)cn2)c2ccccc21`, the IC50 [4] was 0.469 µM (active), the EC50 [5] was > 79.4 µM (inactive) and the EC50 [6] was > 79.4 µM (not active). The EC50 [7] was > 91.2 µM (inactive), the EC50 [8] was > 91.2 µM (inactive) and the EC50 [9] was > 79.4 µM (not active).
In the case of `Cn1c(NC(=O)CCC2CCCCC2)cc(=O)n(C)c1=O`, the EC50 [10] was > 67.5 µM (inactive).
For `S=C(Nc1ccc(Nc2ccccc2)cc1)NC1CCCCCC1`, the IC50 [11] was > 7.72 µM (active), the EC50 [12] was 2.21 µM (active) and the IC50 [13] was > 69.5 µM (inactive). The EC50 [14] was 29 µM (active).
With `Cc1cccc(Oc2cc(NC(=O)c3ccccc3)cc([N+](=O)[O-])c2)c1` the IC50 [15] was > 69.5 µM (inactive), the AC50 (INS1) was 3.57 µM (active) and the AC50 [16] was 3.09 µM (active). For the same compound, the IC50 [17] was > 69.5 µM (inactive), the AC50 [18] was 13.6 µM (active) and the AC50 [19] was 45.5 µM (active).
With `CN(C)S(=O)(=O)c1ccc(NC(=O)CSc2ncnc3ccccc23)cc1` the IC50 (cells) was > 138 µM (inactive) and the IC50 (Major prion protein) was 16.5 µM (inactive).
In the case of `COc1cc(C2C(C(=O)c3ccco3)=C(O)C(=O)N2CCc2ccccc2)ccc1O` (configuration not stated), the Ki (fMet-Leu-Phe receptor) was > 66.7 µM (inactive).
